# Values joined by “and” are separate entries in the source; they are usually repeats but may differ in a detail not shown here. Equal values may be shown once.
# Columns and labels:
# [1] = Protein binding in CD-1 mouse plasma (equilibrium dialysis); conditions: dialysis conditions; no binding reported
# [2] = Metabolic stability in rat liver S9; assay type: in vitro ADME, Sprague Dawley rat; design: half-life: dose or concentration left out as unconfirmed; conditions: for half-life: Sprague Dawley (rat), rat, dog and human liver S9 incubations (summary over species), read-out: half-lives; for half-life / half-life at 1 μM / microsomal CLint at 1 μM: pH 7.2; for half-life at 1 μM / microsomal CLint at 1 μM: Sprague Dawley; for half-life at 1 μM / microsomal CLint at 1 μM / % Remaining / Analyte Peak area/IS Peak area Mean × 100 (n = 2): rat liver S9, 1 μM; for microsomal CLint at 1 μM: read-out: CLint(LS9)
# Protocol: Incubation Buffer (PBK): 50 mM potassium phosphate buffer was prepared from 1 M potassium phosphate buffer, pH 7.2. […] The dilution of […] was prepared by 90% methanol/10% DMSO, then 10 μM working solutions were prepared by diluting the 0.1 mM intermediates with 50 mM PBK. […] Prior to use, the stock solutions were brought to room temperature and thoroughly mixed. […] Cofactors Solutions: the mixture of cofactors solution was made at 10 mM of NADPH and 10 mM of UDPGA in PBK buffer.
# (§1) The incubation was carried out in 96-well plates. The liver S9 working solutions were added to 96-well plates (80 μL/well) in duplicate. […] Reaction was initiated by adding cofactor mixture 10 μL/well. The plates were incubated at 37° C. in a water bath with shaking. […] The final organic solvent content in the incubation was ≤1%.
# At specified time points, i.e., 5, 10, 20, 30 and 60 minutes, NCF60 (without adding NADPH (Nicotinamide-adenine dinucleotide phosphate, reduced form) and UDPGA (Uridine 5′-diphosphoglucuronic acid trisodium salt) replaced with PBK buffer reaction was stopped by adding three volumes of stop solution. The time zero (To) samples were prepared by adding three volumes of stop solution to liver S9 samples, followed by addition of test article or control, and cofactor mixture solution 10 μL/well.
# Subsequently, 100 μL of supernatant.
# Positive controls: 7-ethoxycoumarin and 7-hydroxycoumarin.
# [3] = Enzyme and uptake assays; assay type: biochemical; conditions: human recombinant; [3H]NE incorporation into cells; read-out: IC50, Norepinephrine transporter uptake (h)
# Protocol: A study was conducted to test 5 compounds in cellular and nuclear receptor functional and enzyme and uptake assays.
# The results are expressed as a percent of control specific activity
# and as a percent inhibition of control specific activity
# The IC50 values (concentration causing a half-maximal inhibition of control specific activity), EC50 values (concentration producing a half-maximal increase in control basal activity), and Hill coefficients (nH) were determined by non-linear regression analysis of the inhibition/concentration-response curves generated with mean replicate values using Hill equation curve fitting
# where Y=specific activity, A=left asymptote of the curve, D=right asymptote of the curve, C=compound concentration, C50=IC50 or EC50, and nH=slope factor. This analysis was performed using software developed at Cerep (Hill software) and validated by comparison with data generated by the commercial software SigmaPlot® 4.0 for Windows® (© 1997 by SPSS Inc.).
# In Vitro Pharmacology. Results showing an inhibition (or stimulation for assays run in basal conditions) higher than 50% were considered to represent significant effects of the test compounds. Results showing an inhibition (or stimulation) between 25% and 50% are indicative of weak to moderate effects. Results showing an inhibition (or stimulation) lower than 25% were not considered significant and mostly attributable to variability of the signal around the control level. […]
# [4] = Metabolic stability in human intestinal homogenate; assay type: in vitro ADME; conditions: human intestinal homogenate, 1 μM
# Protocol: Incubation Buffer (PBK): 50 mM potassium phosphate buffer (PBK) was prepared from 1 M potassium phosphate buffer, pH 7.2. […] The dilution of 1 mM intermediate was prepared from 10 mM stock with 90% methanol/water, then […] working solutions were prepared by diluting the 1 mM intermediates with 50 mM PBK. […] Prior to use, the stock solutions were brought to room temperature and thoroughly mixed. […] Cofactors Solutions: the cofactor solution was made at 10 mM of NADPH (nicotinamide-adenine dinucleotide phosphate, reduced form) in 50 mM PBK buffer.
# as §1, with “intestinal homogenate mixture solution was” for “liver S9 working solutions were”, “solution at” for “mixture”, “µL/well.” for “μL/well.”
# At specified time points, i.e., 5, 10, 20, 30 and 60 minutes, NCF60 (no cofactor at 60 min, without adding NADPH replaced with 50 mM PBK buffer) reaction was stopped by adding three volumes of stop solution. The time zero (To) samples were prepared by adding three volumes of stop solution to intestinal homogenate samples, followed by addition of test article or control, and cofactor solution 10 μL/well.
# Subsequently, 100 μL of supernatant was removed from each well, diluted with 100 μL pure water and analyzed by LC/MS/MS.
# A study was conducted to examine the metabolic stability. […] Positive controls: 7-hydroxycoumarin and Testosterone.
# [5] = 80 mg/kg PO; for Clinical observation (tolerability): beagle dogs; for plasma concentration of the analog itself: LLOQ 3.0 ng/mL
# [6] = In vitro stability in human plasma; assay type: in vitro ADME; conditions: human plasma, 2.0 μM
# Protocol: Test Article Solutions: COMPOUND A, COMPOUND B and COMPOUND C stock solutions at 10 mM were prepared in dimethyl sulfoxide (DMSO). Further dilution with DMSO was made to prepare 2.0 mM. The working solutions of 50 μM was prepared with 20% MeOH/water. […] Prior to use, the stock solutions were brought to room temperature and thoroughly mixed and prepared same as described above.
# Incubations were conducted in 96-well plate format. The time points defined for this study are 0, 5, 15, 30 and 60 minutes.
# An appropriate volume of plasma from test species were added to a 96-deep well plate, and COMPOUND A, COMPOUND B and COMPOUND C working solution was spiked into the plasma in duplicate to achieve a final concentration of 2.0 μM. For positive controls, the rat plasma was spiked with enalapril, the dog plasma spiked with bisacodyl and the human plasma was spiked with propantheline. All spiked plasma sample plates were incubated in a water bath at 37° C. with shaking.
# At the end of each time point, samples were immediately quenched with three volume of cold quenching solution.
# A study was conducted to examine the plasma stability. Test Compounds: COMPOUND D, COMPOUND E, and Viloxazine. Positive controls: Enalapril and Propantheline.
structure (smiles),measurement,setting,value
CCOc1ccccc1OC[C@@H]1CN(C(=O)OC(C)OC(=O)[C@@H](N)C(C)C)CCO1 (stereo partly shown) [COMPOUND A],stability in the mouse plasma,[1],instability
same,half-life,[2],4 to 12 min
same,half-life at 1 μM,[2],8.61 min
same,microsomal CLint at 1 μM,[2],161 µL/min/mg
same,% Remaining,[2]; 0 min,100%
same,Analyte Peak area/IS Peak area Mean × 100 (n = 2),[2]; 0 min,10.7
same,% Remaining,[2]; 5 min,6.3%
same,Analyte Peak area/IS Peak area Mean × 100 (n = 2),[2]; 5 min,0.669
same,% Remaining,[2]; 10 min,5.4%
same,Analyte Peak area/IS Peak area Mean × 100 (n = 2),[2]; 10 min,0.574
same,% Remaining,[2]; 20 min,3.4%
same,Analyte Peak area/IS Peak area Mean × 100 (n = 2),[2]; 20 min,0.362
same,% Remaining,[2]; 30 min,1.6%
same,Analyte Peak area/IS Peak area Mean × 100 (n = 2),[2]; 30 min,0.171
same,% Remaining,[2]; 60 min,0.25%
same,Analyte Peak area/IS Peak area Mean × 100 (n = 2),[2]; 60 min,0.026
same,% Remaining,"[2]; NCF60 (no cofactors, 60 min)",2.2%
same,Analyte Peak area/IS Peak area Mean × 100 (n = 2),"[2]; NCF60 (no cofactors, 60 min)",0.237
same,IC50,[3],390 nM
same,% Remaining,[4]; 0 min,100%
same,Analyte Peak area/IS Peak area Mean (n = 2),[4]; 0 min,0.269
same,% Remaining,[4]; 5 min,0%
same,Analyte Peak area/IS Peak area Mean (n = 2),[4]; 5 min,0.000
same,% Remaining,[4]; 10 min,0%
same,Analyte Peak area/IS Peak area Mean (n = 2),[4]; 10 min,0.000
same,% Remaining,[4]; 20 min,0%
same,Analyte Peak area/IS Peak area Mean (n = 2),[4]; 20 min,0.000
same,% Remaining,[4]; 30 min,0%
same,Analyte Peak area/IS Peak area Mean (n = 2),[4]; 30 min,0.000
same,% Remaining,[4]; 60 min,0%
same,Analyte Peak area/IS Peak area Mean (n = 2),[4]; 60 min,0.000
same,% Remaining,[4]; NCF60 (no cofactor at 60 min),0%
same,Analyte Peak area/IS Peak area Mean (n = 2),[4]; NCF60 (no cofactor at 60 min),0.000
same,half-life at 1 μM,[4]; pH 7.2,< 2.5 min
same,Clinical observation (tolerability),[5],well tolerated
same,plasma concentration of the analog itself,[5],mostly below the LLOQ
same,half-life at 2 μM,[6],94.9 min
same,% Remaining,[6]; 0 min,100%
same,Analyte Peak area/IS Peak area Mean (N = 2),[6]; 0 min,2.31
same,% Remaining,[6]; 5 min,107%
same,Analyte Peak area/IS Peak area Mean (N = 2),[6]; 5 min,2.46
same,% Remaining,[6]; 15 min,93.1%
same,Analyte Peak area/IS Peak area Mean (N = 2),[6]; 15 min,2.15
same,% Remaining,[6]; 30 min,80.8%
same,Analyte Peak area/IS Peak area Mean (N = 2),[6]; 30 min,1.86
same,Analyte Peak area/IS Peak area Mean (N = 2),[6]; 60 min,1.57
CCOc1ccccc1OC[C@@H]1CN(C(=O)OC(OC(=O)[C@@H](N)C(C)C)C(C)C)CCO1 (stereo partly shown) [COMPOUND B],stability in the mouse plasma,[1],instability
same,half-life,[2],4 to 12 min
same,half-life at 1 μM,[2],4.09 min
same,microsomal CLint at 1 μM,[2],339 µL/min/mg
same,% Remaining,[2]; 0 min,100%
same,Analyte Peak area/IS Peak area Mean × 100 (n = 2),[2]; 0 min,7.71
same,% Remaining,[2]; 5 min,6.8%
same,Analyte Peak area/IS Peak area Mean × 100 (n = 2),[2]; 5 min,0.524
same,% Remaining,[2]; 10 min,4.6%
same,Analyte Peak area/IS Peak area Mean × 100 (n = 2),[2]; 10 min,0.351
same,% Remaining,[2]; 20 min,2.3%
same,Analyte Peak area/IS Peak area Mean × 100 (n = 2),[2]; 20 min,0.174
same,% Remaining,[2]; 30 min,0.2%
same,Analyte Peak area/IS Peak area Mean × 100 (n = 2),[2]; 30 min,0.019
same,% Remaining,[2]; 60 min,0.08% and 0.1%
same,Analyte Peak area/IS Peak area Mean × 100 (n = 2),[2]; 60 min,0.006
same,% Remaining,"[2]; NCF60 (no cofactors, 60 min)",0.4%
same,Analyte Peak area/IS Peak area Mean × 100 (n = 2),"[2]; NCF60 (no cofactors, 60 min)",0.029
same,IC50,[3],1900 nM
same,% Remaining,[4]; 0 min,100%
same,Analyte Peak area/IS Peak area Mean (n = 2),[4]; 0 min,0.275
same,% Remaining,[4]; 5 min,7.3%
same,Analyte Peak area/IS Peak area Mean (n = 2),[4]; 5 min,0.020
same,% Remaining,[4]; 10 min,7.1%
same,Analyte Peak area/IS Peak area Mean (n = 2),[4]; 10 min,0.020
same,% Remaining,[4]; 20 min,6.1%
same,Analyte Peak area/IS Peak area Mean (n = 2),[4]; 20 min,0.017
same,% Remaining,[4]; 30 min,2.7%
same,Analyte Peak area/IS Peak area Mean (n = 2),[4]; 30 min,0.007
same,% Remaining,[4]; 60 min,0.57%
same,Analyte Peak area/IS Peak area Mean (n = 2),[4]; 60 min,0.002
same,% Remaining,[4]; NCF60 (no cofactor at 60 min),0.8%
same,Analyte Peak area/IS Peak area Mean (n = 2),[4]; NCF60 (no cofactor at 60 min),0.002
same,half-life at 1 μM,[4]; pH 7.2,10.3 min
same,microsomal CLint at 1 μM,"[4]; pH 7.2, read-out: CLint(HIH)",135 µL/min/mg
same,Clinical observation (tolerability),[5],well tolerated
same,plasma concentration of the analog itself,[5],mostly below the LLOQ
same,half-life at 2 μM,[6],> 187 min
same,% Remaining,[6]; 0 min,100%
same,Analyte Peak area/IS Peak area Mean (N = 2),[6]; 0 min,1.90
same,% Remaining,[6]; 5 min,90.6%
same,Analyte Peak area/IS Peak area Mean (N = 2),[6]; 5 min,1.72
same,% Remaining,[6]; 15 min,94.5%
same,Analyte Peak area/IS Peak area Mean (N = 2),[6]; 15 min,1.79
same,% Remaining,[6]; 30 min,87.1%
same,Analyte Peak area/IS Peak area Mean (N = 2),[6]; 30 min,1.65
same,% Remaining,[6]; 60 min,91.5%
same,Analyte Peak area/IS Peak area Mean (N = 2),[6]; 60 min,1.73
